Experimental findings from patent US9346809B2 (LEO PHARMA A/S, priority 2009, dated 2016) are described below.

Holding throughout (type): biochemical
For test [1], the target named is T1, JAK2 (catalytic domain, His-tag) (Homo sapiens, UniProt O60674).
T1 construct: All four purified enzymes contain only the catalytic domain; His (N); purchased Carna Biosciences, Inc; host or cells: baculovirus expression system
Description: JAK kinase assay (HTRF, phosphorylation of TK substrate-biotin), JAK2. To be noted: ATP at Km (4 μM). The gist of the method: (§1)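 Compound was mixed with TK substrate-biotin (1 μM final), then kinase plus ATP at its Km was added and left 20-30 min at room temperature. Detection mix with EDTA, Streptavidin-XL665 and STK Ab Cryptate stopped the reaction; after overnight dark incubation, HTRF was read and EC50 derived.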
(In general: Time-resolved FRET reads energy transfer from a long-lived donor to a nearby acceptor.)

The target of test [2] is T2, JAK3 (catalytic domain, His-tag) (Homo sapiens, UniProt P52333).
T2 construct: All four purified enzymes contain only the catalytic domain; His (N); purchased Carna Biosciences, Inc; host or cells: baculovirus expression system
The test is described as follows: JAK kinase assay (HTRF, phosphorylation of TK substrate-biotin), JAK3. To be noted: ATP at Km (2 μM). In a few lines: as §1

The target of test [3] is T3, JAK1 (aa 850-1154, catalytic domain, GST-tag) (Homo sapiens, UniProt P23458).
T3 construct: JAK1 (aa 850-1154) and TYK2 (aa 871-1187) are expressed with an N-terminally fused GST-tag; GST (N); purchased Carna Biosciences, Inc; host or cells: baculovirus expression system
The test is described as follows: JAK kinase assay (HTRF, phosphorylation of TK substrate-biotin), JAK1. To be noted: ATP at Km (7 μM). In a few lines: as §1

Test [4] deals with T4, TYK2 (aa 871-1187, catalytic domain, GST-tag) (Homo sapiens, UniProt P29597).
T4 construct: JAK1 (aa 850-1154) and TYK2 (aa 871-1187) are expressed with an N-terminally fused GST-tag; GST (N); purchased Carna Biosciences, Inc; host or cells: baculovirus expression system
T4 sequence (P29597 871-1187): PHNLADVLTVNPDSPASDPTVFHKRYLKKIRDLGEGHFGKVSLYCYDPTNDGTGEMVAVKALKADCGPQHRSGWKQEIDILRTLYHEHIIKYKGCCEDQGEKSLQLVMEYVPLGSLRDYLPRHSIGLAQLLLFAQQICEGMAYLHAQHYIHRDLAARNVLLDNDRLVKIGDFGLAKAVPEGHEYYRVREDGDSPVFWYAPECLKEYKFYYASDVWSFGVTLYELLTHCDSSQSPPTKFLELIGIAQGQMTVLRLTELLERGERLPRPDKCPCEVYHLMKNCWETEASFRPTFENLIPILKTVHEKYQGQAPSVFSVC
Description: JAK kinase assay (HTRF, phosphorylation of TK substrate-biotin), TYK2. Particulars: ATP at Km (13 μM). The gist of the method:
as §1

[5] abbreviates: HTRF assay, read-out: JAK2 kinase inhibitory activity (EC50 indicator).
Setting [6] is: HTRF assay, read-out: JAK3 kinase inhibitory activity (EC50 indicator).
Setting [7] is: HTRF assay, read-out: JAK1 kinase inhibitory activity (EC50 indicator).
Setting [8] is: HTRF assay, read-out: TYK2 kinase inhibitory activity (EC50 indicator).
[9] abbreviates: read-out: JAK2 kinase inhibitory activity (EC50 indicator).
[10] abbreviates: read-out: JAK3 kinase inhibitory activity (EC50 indicator).
Setting [11] is: read-out: JAK1 kinase inhibitory activity (EC50 indicator).
Setting [12] is: read-out: TYK2 kinase inhibitory activity (EC50 indicator).
Setting [13] is: HTRF assay, read-out: JAK2 kinase inhibitory activity (EC50).
Setting [14] is: HTRF assay, read-out: JAK3 kinase inhibitory activity (EC50).
The mark [15] stands for this setting: HTRF assay, read-out: JAK1 kinase inhibitory activity (EC50).
Where [16] appears, read: HTRF assay, read-out: TYK2 kinase inhibitory activity (EC50).

SMILES strings stand for the structures. Where two headings read alike, the source gives them in different places.

T1 sequence (O60674 849-1124 limits assumed): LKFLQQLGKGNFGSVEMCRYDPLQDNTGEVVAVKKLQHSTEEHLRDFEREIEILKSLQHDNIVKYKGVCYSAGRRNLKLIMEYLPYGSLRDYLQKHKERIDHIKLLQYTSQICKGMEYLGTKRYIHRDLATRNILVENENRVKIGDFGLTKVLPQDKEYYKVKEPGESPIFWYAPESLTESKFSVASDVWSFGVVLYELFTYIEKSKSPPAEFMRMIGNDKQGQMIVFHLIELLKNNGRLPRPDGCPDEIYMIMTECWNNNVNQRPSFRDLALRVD
T3 sequence (P23458 850-1154): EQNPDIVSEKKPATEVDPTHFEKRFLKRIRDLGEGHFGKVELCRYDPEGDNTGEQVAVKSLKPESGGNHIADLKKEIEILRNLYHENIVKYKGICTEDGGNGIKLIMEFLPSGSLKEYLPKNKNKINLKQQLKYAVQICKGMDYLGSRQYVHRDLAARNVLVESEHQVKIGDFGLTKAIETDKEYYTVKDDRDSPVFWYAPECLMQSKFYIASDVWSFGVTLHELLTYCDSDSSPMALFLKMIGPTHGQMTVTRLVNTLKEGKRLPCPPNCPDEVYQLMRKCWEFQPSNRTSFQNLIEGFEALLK
T2 sequence (P52333 822-1111 limits assumed): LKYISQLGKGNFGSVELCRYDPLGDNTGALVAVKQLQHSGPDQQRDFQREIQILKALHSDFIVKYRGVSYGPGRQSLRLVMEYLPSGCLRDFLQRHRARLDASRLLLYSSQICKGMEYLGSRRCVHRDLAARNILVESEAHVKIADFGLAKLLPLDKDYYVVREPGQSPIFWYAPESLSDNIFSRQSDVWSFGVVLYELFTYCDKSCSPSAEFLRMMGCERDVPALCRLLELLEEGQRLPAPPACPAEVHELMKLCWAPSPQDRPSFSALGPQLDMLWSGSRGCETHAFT

Usually EC50 stands for the concentration at which the effect is half-maximal. `CC(C)(C)OC(=O)NCCNS(=O)(=O)c1ccc(C(=O)N2CCN(c3ncnc4[nH]ccc34)CC23CC3)cc1` [Example 428, (2-{4-[7-(7H-Pyrrolo[2,3-d]pyrimidin-4-yl)-4,7-diaza-spiro[2.5]octane-4-carbonyl]-benzenesulfonylamino}-ethyl)-carbamic acid tert-butyl ester]: the EC50 in test [1] (setting [5]) was under 100 nM; in test [2] (setting [6]) it was under 100 nM; in test [3] (setting [7]), under 100 nM; in test [4] (setting [8]) it was 100 to 500 nM.
With `O=C(c1cccnc1)N1CCN(c2ccnc3[nH]ccc23)CC12CC2` [Example 223, Pyridin-3-yl-[7-(1H-pyrrolo[2,3-b]pyridin-4-yl)-4,7-diaza-spiro[2.5]oct-4-yl]-methanone], the EC50 in test [1] (setting [5]) was 100 to 500 nM; in test [2] (setting [6]), over 500 nM; in test [3] (setting [7]) it was 100 to 500 nM; in test [4] (setting [8]) it was over 500 nM.
On to `Cc1ccc(C(=O)N2C3CCC2CN(c2ncnc4[nH]ccc24)C3)cc1S(N)(=O)=O` [Example 138, 2-Methyl-5-[3-(7H-pyrrolo[2,3-d]pyrimidin-4-yl)-3,8-diaza-bicyclo[3.2.1]octane-8-carbonyl]-benzenesulfonamide], for which the EC50 in test [1] (setting [9]) was under 100 nM; in test [2] (setting [10]) it was under 100 nM; in test [3] (setting [11]), under 100 nM; in test [4] (setting [12]) it was over 500 nM.
Take `CCN(CC)S(=O)(=O)N1CCN(c2ncnc3[nH]ccc23)CC12CC2` [Example 459, 7-(7H-Pyrrolo[2,3-d]pyrimidin-4-yl)-4,7-diaza-spiro[2.5]octane-4-sulfonic acid diethylamide]: the EC50 in test [1] (setting [13]) was under 100 nM; in test [2] (setting [14]), 100 to 500 nM; in test [3] (setting [15]) it was under 100 nM; in test [4] (setting [16]) it was 100 to 500 nM.
As to `NS(=O)(=O)c1cc(OCC(=O)N2CCN(c3ncnc4[nH]ccc34)CC23CC3)ccc1Cl` [Example 102, 2-Chloro-5-{2-oxo-2-[7-(7H-pyrrolo[2,3-d]pyrimidin-4-yl)-4,7-diaza-spiro[2.5]oct-4-yl]-ethoxy}-benzenesulfonamide], the EC50 in test [1] (setting [9]) was under 100 nM; in test [2] (setting [10]) it was under 100 nM; in test [3] (setting [11]), under 100 nM; in test [4] (setting [12]) it was 100 to 500 nM.
As for `NS(=O)(=O)c1ccc(-c2ccc(C(=O)N3CCN(c4ncnc5[nH]ccc45)CC34CC4)o2)cc1` [Example 400, 4-{5-[7-(7H-Pyrrolo[2,3-d]pyrimidin-4-yl)-4,7-diaza-spiro[2.5]octane-4-carbonyl]-furan-2-yl}-benzenesulfonamide], the EC50 in test [1] (setting [5]) is under 100 nM; in test [2] (setting [6]) it was 100 to 500 nM; in test [3] (setting [7]), under 100 nM; in test [4] (setting [8]), 100 to 500 nM.
As for `CS(=O)(=O)CCC(=O)N1CCN(c2ncnc3[nH]ccc23)CC12CC2` [Example 37, 3-Methanesulfonyl-1-[7-(7H-pyrrolo[2,3-d]pyrimidin-4-yl)-4,7-diazaspiro[2.5]oct-4-yl]propan-1-one], the concentration giving a half-maximal response (EC50) in test [1] (setting [9]) was under 100 nM; in test [2] (setting [10]) it was 100 to 500 nM; in test [3] (setting [11]), under 100 nM; in test [4] (setting [12]) it was over 500 nM.
Take `O=C(c1ccccc1)N1C[C@@H]2C[C@H]1CN2c1ncnc2[nH]ccc12` (racemic) [Example 253, Phenyl-[5-(7H-pyrrolo[2,3-d]pyrimidin-4-yl)-2,5-diaza-bicyclo[2.2.1]hept-2-yl]-methanone]: the half-maximal effective concentration (EC50) in test [1] (setting [5]), in test [2] (setting [6]), in test [3] (setting [7]) and in test [4] (setting [8]) was over 500 nM each time.
With `CCS(=O)(=O)Nc1ccc(C(=O)N2CCN(c3ncnc4[nH]ccc34)CC23CC3)cc1` [Example 210, Ethanesulfonic acid {4-[7-(7H-pyrrolo[2,3-d]pyrimidin-4-yl)-4,7-diaza-spiro[2.5]octane-4-carbonyl]-phenyl}-amide], the EC50 in test [1] (setting [5]), in test [2] (setting [6]), in test [3] (setting [7]) and in test [4] (setting [8]) was under 100 nM throughout.
Consider `N#Cc1ccc(CC(=S)N2CCN(c3ncnc4[nH]ccc34)CC23CC3)cc1` [Example 441, 4-{2-[7-(7H-Pyrrolo[2,3-d]pyrimidin-4-yl)-4,7-diaza-spiro[2.5]oct-4-yl]-2-thioxo-ethyl}-benzonitrile], for which the EC50 in test [1] (setting [13]), in test [2] (setting [14]), in test [3] (setting [15]) and in test [4] (setting [16]) was under 100 nM in each case.
As for `N#Cc1ccccc1C(=O)N1CCN(c2ncnc3[nH]ccc23)CC12CC2` [Example 299, 2-[7-(7H-Pyrrolo[2,3-d]pyrimidin-4-yl)-4,7-diaza-spiro[2.5]octane-4-carbonyl]-benzonitrile], the 50% effective concentration (EC50) in test [1] (setting [5]) is under 100 nM; in test [2] (setting [6]), 100 to 500 nM; in test [3] (setting [7]), under 100 nM; in test [4] (setting [8]), 100 to 500 nM.
Regarding `N#CCCCC(=O)N1[C@@H]2CC[C@@H]1CN(c1ncnc3[nH]ccc13)C2` [Example 352, 5-Oxo-5-[3-(7H-pyrrolo[2,3-d]pyrimidin-4-yl)-3,8-diaza-bicyclo[3.2.1]oct-8-yl]-pentanenitrile], the EC50 in test [1] (setting [5]) was under 100 nM; in test [2] (setting [6]), 100 to 500 nM; in test [3] (setting [7]), under 100 nM; in test [4] (setting [8]) it was over 500 nM.
For `O=C(c1ccccc1)N1CCN(c2ccnc3[nH]ccc23)CC12CC2` [Example 221, Phenyl-[7-(1H-pyrrolo[2,3-b]pyridin-4-yl)-4,7-diaza-spiro[2.5]oct-4-yl]-methanone], the EC50 in test [1] (setting [5]) was under 100 nM; in test [2] (setting [6]) it was 100 to 500 nM; in test [3] (setting [7]), under 100 nM; in test [4] (setting [8]), over 500 nM.
With `O=C(Cc1ccncc1)N1CCN(c2ncnc3[nH]ccc23)CC12CC2` [Example 21, 2-Pyridin-4-yl-1-[7-(7H-pyrrolo[2,3-d]pyrimidin-4-yl)-4,7-diazaspiro[2.5]oct-4-yl]ethanone], the EC50 in test [1] (setting [9]) is under 100 nM; in test [2] (setting [10]) it was 100 to 500 nM; in test [3] (setting [11]), under 100 nM; in test [4] (setting [12]) it was over 500 nM.
As for `COc1ccc(C(=O)N2CCN(c3ncnc4[nH]ccc34)CC23CC3)s1` [Example 206, (5-Methoxy-thiophen-2-yl)-[7-(7H-pyrrolo[2,3-d]pyrimidin-4-yl)-4,7-diaza-spiro[2.5]oct-4-yl]-methanone], the half-maximal effective concentration (EC50) in test [1] (setting [5]), in test [2] (setting [6]), in test [3] (setting [7]) and in test [4] (setting [8]) was under 100 nM each time.
As for `Cc1ccc(C(=O)N2CCN(c3ncnc4[nH]ccc34)CC23CC3)s1` [Example 91, (5-Methyl-thiophen-2-yl)-[7-(7H-pyrrolo[2,3-d]pyrimidin-4-yl)-4,7-diaza-spiro[2.5]oct-4-yl]-methanone], the EC50 in test [1] (setting [9]), in test [2] (setting [10]), in test [3] (setting [11]) and in test [4] (setting [12]) was under 100 nM throughout.
With `NS(=O)(=O)c1ccc(C(=O)N2CCN(c3ncnc4[nH]ccc34)CC23CC3)o1` [Example 198, 5-[7-(7H-Pyrrolo[2,3-d]pyrimidin-4-yl)-4,7-diaza-spiro[2.5]octane-4-carbonyl]-furan-2-sulfonic acid amide], the EC50 in test [1] (setting [9]), in test [2] (setting [10]), in test [3] (setting [11]) and in test [4] (setting [12]) was under 100 nM throughout.
Regarding `COC(=O)c1cc2c(N3CCN(C(=O)Cc4ccc(F)cc4)C4(CC4)C3)ncnc2[nH]1` [Example 337, 4-{4-[2-(4-Fluoro-phenyl)-acetyl]-4,7-diaza-spiro[2.5]oct-7-yl}-7H-pyrrolo[2,3-d]pyrimidine-6-carboxylic acid methyl ester], the concentration giving a half-maximal response (EC50) in test [1] (setting [5]), in test [2] (setting [6]), in test [3] (setting [7]) and in test [4] (setting [8]) was over 500 nM throughout.
Consider `O=C1c2ccccc2CC1C(=O)N1C2CCC1CN(c1ncnc3[nH]ccc13)C2` (stereo not shown) [Example 133, 2-[3-(7H-Pyrrolo[2,3-d]pyrimidin-4-yl)-3,8-diaza-bicyclo[3.2.1]octane-8-carbonyl]-indan-1-one], for which the EC50 in test [1] (setting [9]) was 100 to 500 nM; in test [2] (setting [10]), over 500 nM; in test [3] (setting [11]) it was over 500 nM; in test [4] (setting [12]), over 500 nM.
